Laboratory results taken from patent US20220220135A1 (BAR-ILAN UNIVERSITY, priority 2019, published 2022).
Like-named read-outs stand apart in the source and are kept apart here.

What was measured:
[1] = target: T1, NPP1 (Homo sapiens, UniProt P22413); assay: Inhibition of human NPP1, pNP-TMP as substrate (analogues 9-12); type: biochemical
T1 sequence (P22413 1-925): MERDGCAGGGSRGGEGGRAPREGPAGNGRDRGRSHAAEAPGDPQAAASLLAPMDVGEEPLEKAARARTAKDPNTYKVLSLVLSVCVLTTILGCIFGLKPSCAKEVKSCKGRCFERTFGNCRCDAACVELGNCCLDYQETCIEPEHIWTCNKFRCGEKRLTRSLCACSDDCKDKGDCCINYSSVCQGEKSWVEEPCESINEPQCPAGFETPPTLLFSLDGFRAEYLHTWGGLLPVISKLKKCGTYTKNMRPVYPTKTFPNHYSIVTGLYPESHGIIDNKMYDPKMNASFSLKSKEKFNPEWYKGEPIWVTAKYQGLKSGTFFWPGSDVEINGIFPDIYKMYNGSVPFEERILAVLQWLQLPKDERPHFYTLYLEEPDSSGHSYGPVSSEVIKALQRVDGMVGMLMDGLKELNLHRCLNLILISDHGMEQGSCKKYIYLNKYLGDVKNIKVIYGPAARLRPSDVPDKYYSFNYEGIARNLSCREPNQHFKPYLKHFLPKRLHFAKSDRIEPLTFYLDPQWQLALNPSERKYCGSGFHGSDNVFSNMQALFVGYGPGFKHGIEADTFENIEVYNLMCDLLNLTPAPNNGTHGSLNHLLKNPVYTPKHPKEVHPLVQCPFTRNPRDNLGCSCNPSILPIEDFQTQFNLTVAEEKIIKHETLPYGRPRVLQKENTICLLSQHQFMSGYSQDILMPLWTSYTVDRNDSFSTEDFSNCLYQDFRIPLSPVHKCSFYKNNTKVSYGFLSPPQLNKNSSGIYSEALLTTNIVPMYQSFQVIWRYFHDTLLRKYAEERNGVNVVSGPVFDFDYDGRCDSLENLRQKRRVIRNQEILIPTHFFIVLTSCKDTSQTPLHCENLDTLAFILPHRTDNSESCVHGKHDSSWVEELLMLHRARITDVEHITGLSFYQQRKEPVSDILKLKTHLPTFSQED
Protocol: (§1) FIG. 2: Inhibition of NTPDases and NPPs by analogues 9-12 using as substrates ATP (100 μM) for NTPDase1,2,3,8 and pNP-TMP (100 μM) for NPP1,3 (Panel A); and ATP (100 μM) was used as the substrate for NPP1 (Panel B);
Analogues 9-12 were evaluated for their ability to inhibit human NPP1.
(§2) At least 2 independent experiments were performed. In panel A, the activity with 100 μM ATP was set as 100%, which was 287±31, 395±67, 278±22, 119±26 nmol of Pi·min−1·mg of protein−1 for human NTPDase1, -2, -3 and -8, respectively, and the activity with 100 μM pNP-TMP was set as 100% which was 67±5, 21±1 nmol of p-nitrophenol·min−1·mg of protein−1 for human NPP1 and NPP3, respectively. In panel B, the activity with 100 μM ATP was set as 100% which was 34±7 nmol of PPi·min−1·mg of protein−1 for NPP1.

[2] = target: T2, NTPDase8 (Homo sapiens, UniProt Q5MY95); assay: Inhibition of ATPase activity of human NTPDase8; type: biochemical; details: analogue at 100 μM; ATP 100 μM as substrate
T2 sequence (Q5MY95 1-495): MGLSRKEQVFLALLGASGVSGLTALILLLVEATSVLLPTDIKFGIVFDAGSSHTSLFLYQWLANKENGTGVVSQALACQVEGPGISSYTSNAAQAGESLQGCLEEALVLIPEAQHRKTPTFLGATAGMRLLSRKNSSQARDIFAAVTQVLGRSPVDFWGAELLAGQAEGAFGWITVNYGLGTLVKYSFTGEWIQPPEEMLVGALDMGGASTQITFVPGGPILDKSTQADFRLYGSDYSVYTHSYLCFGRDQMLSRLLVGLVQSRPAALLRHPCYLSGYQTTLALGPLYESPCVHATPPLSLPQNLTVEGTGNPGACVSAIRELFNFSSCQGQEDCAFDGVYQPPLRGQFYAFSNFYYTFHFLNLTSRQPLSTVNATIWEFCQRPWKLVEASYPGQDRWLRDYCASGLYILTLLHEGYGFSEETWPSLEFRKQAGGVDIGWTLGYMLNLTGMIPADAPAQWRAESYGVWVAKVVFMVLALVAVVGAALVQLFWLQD
Protocol: as §1, §2

[3] = target: P2Y6R (Homo sapiens, UniProt Q15077); assay: P2Y6R agonist activity, inositol-1-phosphate (IP1) accumulation; type: cell-based; set-up: expressed in transfected cells; host or cells: AD293 cells; details: vs. UDP
Excerpt: FIG. 3: P2Y6R agonist activity of analogues 9-12 vs. UDP determined by measuring the production of inositol-1-phosphate (IP1);

[4] = target: T3, human NPP3 (Homo sapiens, UniProt O14638); assay: Inhibition of human NPP3, 100 μM p-Nph-5′-TMP as substrate (Tables 5, 7); type: biochemical; details: 100 μM p-Nph-5′-TMP as a substrate; n = 3
T3 sequence (O14638 1-875): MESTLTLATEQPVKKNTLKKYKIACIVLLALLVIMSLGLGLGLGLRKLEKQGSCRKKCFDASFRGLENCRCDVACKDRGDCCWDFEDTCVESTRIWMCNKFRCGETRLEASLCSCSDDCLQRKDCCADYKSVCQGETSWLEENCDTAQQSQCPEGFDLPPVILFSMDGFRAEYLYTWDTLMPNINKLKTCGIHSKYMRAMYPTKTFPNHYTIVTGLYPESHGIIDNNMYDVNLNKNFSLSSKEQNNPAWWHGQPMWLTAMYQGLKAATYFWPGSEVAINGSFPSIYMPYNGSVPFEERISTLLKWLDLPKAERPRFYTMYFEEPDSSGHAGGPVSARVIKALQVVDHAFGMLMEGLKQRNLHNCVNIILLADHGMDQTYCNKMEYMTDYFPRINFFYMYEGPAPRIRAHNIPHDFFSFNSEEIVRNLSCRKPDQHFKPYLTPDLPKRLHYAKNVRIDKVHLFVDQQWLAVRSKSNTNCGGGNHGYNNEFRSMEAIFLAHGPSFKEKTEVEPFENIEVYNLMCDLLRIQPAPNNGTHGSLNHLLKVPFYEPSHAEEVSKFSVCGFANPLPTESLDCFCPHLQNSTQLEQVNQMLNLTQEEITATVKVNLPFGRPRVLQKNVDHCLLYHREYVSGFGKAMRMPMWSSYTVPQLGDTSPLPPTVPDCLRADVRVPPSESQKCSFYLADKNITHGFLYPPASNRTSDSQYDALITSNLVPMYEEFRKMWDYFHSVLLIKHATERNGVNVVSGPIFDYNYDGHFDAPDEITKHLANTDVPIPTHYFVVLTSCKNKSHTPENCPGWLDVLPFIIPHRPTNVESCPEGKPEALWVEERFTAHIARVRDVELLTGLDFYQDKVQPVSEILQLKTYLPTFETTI

[5] = analogue at 100 μM, pNP-TMP 100 μM as substrate
[6] = pNP-TMP as a substrate, mean±SEM
[7] = pNP-TMP as a substrate, mean±SEM, read-out: Ki (μM), NPP1 inhibition

Chain of P2Y6R (Q15077 whole entry): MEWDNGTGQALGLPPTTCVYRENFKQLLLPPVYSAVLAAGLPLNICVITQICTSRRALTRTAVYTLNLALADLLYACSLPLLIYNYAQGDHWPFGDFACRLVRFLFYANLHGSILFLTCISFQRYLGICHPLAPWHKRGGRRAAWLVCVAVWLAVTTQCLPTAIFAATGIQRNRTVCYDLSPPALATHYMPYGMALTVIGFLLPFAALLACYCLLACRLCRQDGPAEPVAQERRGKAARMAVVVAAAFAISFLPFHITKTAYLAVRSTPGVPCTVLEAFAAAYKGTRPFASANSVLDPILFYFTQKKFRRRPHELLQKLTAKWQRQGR

Compound O=c1ccn([C@@H]2O[C@H](COP(=S)(S)OP(=O)(O)OP(=O)(O)O)[C@@H](O)[C@H]2O)c(=O)[nH]1 (stereo partly drawn) [Analogue 10] has an inhibition at 100 µM [1, 5] of 100%, an IC50 [1, 6] of 1.2 ± 0.1 µM and a Ki [1, 7] of 0.24 ± 0.02 µM. For the same compound, the “inhibition of human NTPDase8” value [2] was “no inhibition” and the “P2Y6-R agonist activity (IP1 accumulation)” value (from here on “P2Y6-R agonist activity”) [3] was “limited agonist activities”.
With O=c1ccn([C@@H]2O[C@H](COP(=S)(S)OP(=O)(O)CP(=O)(O)O)[C@@H](O)[C@H]2O)c(=O)[nH]1 (stereo partly drawn) [Analogue 11] the IC50 [1, 6] was 4.3 ± 0.1 µM, the Ki [1, 7] was 1.11 ± 0.19 µM and the “inhibition of human NTPDase8” value [2] was “negligible effects”. The “P2Y6-R agonist activity” value [3] was “devoid of any P2Y6—R activity”.
With O=c1ccn([C@@H]2O[C@H](COP(=S)(S)OP(=O)(O)OP(=O)(O)OP(=S)(S)OC[C@H]3O[C@@H](n4ccc(=O)[nH]c4=O)[C@H](O)[C@@H]3O)[C@@H](O)[C@H]2O)c(=O)[nH]1 (stereo partly drawn) [Analogue 12] the “inhibition of human NPP1” value [1, 5] was “effectively blocked”, the IC50 [1, 6] was 0.125 ± 0.004 µM and the Ki ([1]; pNP-TMP as the substrate, read-out: Ki, NPP1) was 0.027 µM. The “inhibition of human NTPDase8” value [2] was “selective to NPP1” and the “P2Y6-R agonist activity” value [3] was “limited agonist activities”.
For Nc1ncnc2c1ncn2COCCOP(=S)(S)OP(=O)(O)O (stereo not drawn) [compound 106], the “% inhibition ± SEM, human NPP3” value [4] was “n.i.d”.
